A word on the inhibition: it is the share of the control response that was lost under treatment.

The results in this text go back to ChEMBL document CHEMBL3352663, “Inhibition of group IVA cytosolic phospholipase A2 by thiazolyl ketones in vitro, ex vivo, and in vivo” (J Med Chem, 2014).

In this assay the test system is GVIA iPLA2 (Homo sapiens). The experiment in a line: Inhibition of human recombinant GVIA iPLA2 using 400 uM Triton X-100/98.3 uM PAPC/1.7 uM 14C-labeled PAPC substrate mixedmicelles at 1 uM.

On to `O=C(COc1ccccc1)c1nccs1`, for which the inhibition amounted to 13%. To `O=C(COc1ccc(F)cc1)c1nccs1` belongs 5%; to `CCCCCCCCc1ccc(OCC(=O)c2nccs2)cc1`, 67%; to `CCCCCCCCc1ccc(OCC(=O)c2nc3ccccc3s2)cc1`, 77%. On to `O=C(COc1ccc(-c2ccccc2)cc1)c1nccs1`, for which the inhibition turned out to be 23%. Next, `CCCCCCCCc1ccc(OCC(=O)c2nc(CC(=O)OCC)cs2)cc1`: 76%. As to `CCCCCCCCCCCCOCC(=O)c1nc(CC(=O)OCC)cs1`, the inhibition came to 91%. To `CCCCCCCCCCCCOCC(=O)c1nc(C(=O)OCC)cs1` belongs 92%.
